Results from patent US20100184596A1, “METHOD FOR THE CONTROL OF WEEDS IN TURF” (SYNGENTA CROP PROTECTION, INC., priority 2007, published 2010).

Columns and labels:
Assay type in all cases: in vivo
[1] = tested on: Tall fescue v. Coronado; assay: Phytotoxicity via granule application, various inert granules (Table B3.3); details: 8 DAT
Description: (§1) The phytotoxicity of the compound of formula I to turfgrass species was tested. The compound was applied by distribution of granule formulations of formula I, post emergence, to turfgrass species at two rates. All treatments were watered-in 1 day after application. Percentage phytotoxicity assessments were taken at various timepoints.
In Tables B3.3 and B3.4, the granular formulations tested were made by spraying the compound of formula I onto various inert granules. In each of these trials, the granule formulations were tested at a higher rate than the corresponding spray application

[2] = tested on: Bermudagrass v. Tifway 419; assay: Phytotoxicity via granule application (Table B3.2)
Description: as §1
Two granule formulations were made and tested. Granule A is an inert granule formulation, comprising 99.06 wt % DG Lite 150 granules, 0.14 wt % compound of formula I, 0.50 wt % Sunspray 6N, and 0.30 wt % HiSil 233. The compound of formula I was added to the DG Lite granules while blending in a Continental Rollo-mixer.
Sunspray 6N oil was then sprayed onto the granules, and HiSil added to dry excess liquid and improve granule flowability. The granules were blended in the mixer for 20-30 minutes until homogeneous, and passed through a −12/+60 mesh to remove over and under sized particles.
Granule B is a fertiliser granule formulation, comprising 54.65 wt % urea, 6.63 wt % triple super phosphate, 4.95 wt % potassion chloride, 9.91 wt % huber clay, 7.22 wt % HiSil 233, 0.16 wt % compound of formula I, […] agnique ME 181, 2.07 wt % stepfac 8180, and 11.98 wt % water. […] The remaining HiSil was added and granules dried at 40-60° C., to remove excess liquid. Finally, the granules were passed through a −12/+60 mesh to remove over and under sized particles.

[3] = tested on: Zoysiagrass v. Empire; assay: Phytotoxicity in combination with safeners, post emergence spray (Table B4.1); details: no safener, 100 g ai/ha
Description: The phytotoxicity to turfgrass of the compound of formula I in combination with various safeners was tested. The combinations were applied by post emergence spray application. Percentage phytotoxicity assessments were taken at various timepoints. The safeners tested in these trials were cloquintocet-mexyl, cyprosulfamide, a compound of formula 2.3, and isoxadifen-ethyl.

[4] = tested on: Richardia scabra (Florida Pusley); assay: Weed control via post emergence spray, in common centipedegrass (Table B5.2)
Description: (§2) The weed control efficacy of the compound of formula I was tested. The compound was applied via post emergence spray to a range of weeds, at various rates and spray treatment treatment regimes. Percentage weed control assessments were taken at various timepoints.

[5] = tested on: Digitaria ischaemum (smooth crabgrass); assay: Weed control via post emergence spray, in bluegrass/fescue mix (Table B5.7)
Description: as §2

[6] = tested on: St. Augustinegrass; assay: Phytotoxicity via post emergence spray application (Table B2.1)
Description: The phytotoxicity of the compound of formula I to turfgrass species was tested. The compound was applied via post emergence spray to a range of warm and cool season turfgrass species at various rates and spray treatment treatment regimes. Percentage phytotoxicity assessments were taken at various timepoints.

COCCOCc1nc(C(F)(F)F)ccc1C(=O)C1=C(O)C2CCC(C2)C1=O (stereo not drawn) [Formula I, 4-Hydroxy-3-[2-(2-methoxyethoxymethyl)-6-trifluoromethylpyridine-3-carbonyl]-bicyclo[3.2.1]oct-3-en-2-one]
% phytotoxicity ([1]; Agsorb LUM GA granule, 680 g ai/ha): 23.8% | % phytotoxicity ([1]; Agsorb LUM MS granule, 680 g ai/ha): 9.3% | % phytotoxicity ([1]; Agsorb RUM GA granule, 680 g ai/ha): 18.8% | % phytotoxicity ([1]; Bio Dac granule, 680 g ai/ha): 13.8% | % phytotoxicity ([1]; DG Lite granule, 680 g ai/ha): 20.0% | % phytotoxicity ([1]; Eco Gran granule, 680 g ai/ha): 20.0% | % phytotoxicity ([1]; Non dispersing extruded granules, 680 g ai/ha): 21.3% | % phytotoxicity ([1]; Oil dry granule, 680 g ai/ha): 12.5% | % phytotoxicity ([1]; Spray, 340 g ai/ha): 18.8% | % phytotoxicity ([2]; Granule A (inert), 112 g ai/ha, 7 DAT): 6.00% | % phytotoxicity ([2]; Granule A (inert), 112 g ai/ha, 11 DAT): 0.00% | % phytotoxicity ([2]; Granule A (inert), 280 g ai/ha, 7 DAT): 23.30% | % phytotoxicity ([2]; Granule A (inert), 280 g ai/ha, 11 DAT): 8.30% | % phytotoxicity ([2]; Granule A (inert), 280 g ai/ha, 15 DAT): 2.30% | % phytotoxicity ([2]; Granule A (inert), 280 g ai/ha, 20 DAT): 0.00% | % phytotoxicity ([2]; Granule B (fertiliser), 112 g ai/ha, 7 DAT): 16.70% | % phytotoxicity ([2]; Granule B (fertiliser), 280 g ai/ha, 7 DAT): 33.30% | % phytotoxicity ([3]; 6 DAT): 11.70% | % phytotoxicity ([3]; 12 DAT): 63.30% | % phytotoxicity ([3]; 19 DAT): 68.30% | % phytotoxicity ([3]; 27 DAT): 51.70% | % phytotoxicity ([3]; 35 DAT): 40.00% | % control ([4]; 1 appl, 140 g ai/ha, 5 DAT): 16.67% | % control ([4]; 1 appl, 140 g ai/ha, 13 DAT): 25.00% | % control ([4]; 1 appl, 140 g ai/ha, 21 DAT): 33.33% | % control ([4]; 1 appl, 140 g ai/ha, 27 DAT): 33.33% | % control ([4]; 1 appl, 140 g ai/ha, 35 DAT): 23.33% | % control ([4]; 1 appl, 140 g ai/ha, 42 DAT): 16.67% | % control ([4]; 1 appl, 140 g ai/ha, 61 DAT): 13.33% | % control ([4]; 1 appl, 280 g ai/ha, 5 DAT): 20.00% | % control ([4]; 1 appl, 280 g ai/ha, 13 DAT): 36.67% | % control ([4]; 1 appl, 280 g ai/ha, 21 DAT): 46.67% | % control ([4]; 1 appl, 280 g ai/ha, 27 DAT): 41.67% | % control ([4]; 1 appl, 280 g ai/ha, 35 DAT): 38.33% | % control ([4]; 1 appl, 280 g ai/ha, 42 DAT): 28.33% | % control ([4]; 1 appl, 280 g ai/ha, 61 DAT): 38.33% | % control ([4]; 2 appl, 140 g ai/ha, 5 DAT): 16.67% | % control ([4]; 2 appl, 140 g ai/ha, 13 DAT): 20.00% | % control ([4]; 2 appl, 140 g ai/ha, 21 DAT): 41.67% | % control ([4]; 2 appl, 140 g ai/ha, 27 DAT): 33.33% | % control ([4]; 2 appl, 140 g ai/ha, 35 DAT): 60.00% | % control ([4]; 2 appl, 140 g ai/ha, 42 DAT): 53.33% | % control ([4]; 2 appl, 140 g ai/ha, 61 DAT): 8.33% | % control ([4]; 2 appl, 280 g ai/ha, 5 DAT): 16.67% | % control ([4]; 2 appl, 280 g ai/ha, 13 DAT): 28.33% | % control ([4]; 2 appl, 280 g ai/ha, 21 DAT): 46.67% | % control ([4]; 2 appl, 280 g ai/ha, 27 DAT): 35.00% | % control ([4]; 2 appl, 280 g ai/ha, 35 DAT): 61.67% | % control ([4]; 2 appl, 280 g ai/ha, 42 DAT): 61.67% | % control ([4]; 2 appl, 280 g ai/ha, 61 DAT): 16.67% | % control ([5]; 10 g ai/ha, 7 DAT): 0.00% | % control ([5]; 10 g ai/ha, 14 DAT): 0.00% | % control ([5]; 10 g ai/ha, 22 DAT): 0.00% | % control ([5]; 10 g ai/ha, 29 DAT): 0.00% | % control ([5]; 10 g ai/ha, 46 DAT): 1.25% | % control ([5]; 20 g ai/ha, 7 DAT): 0.00% | % control ([5]; 20 g ai/ha, 14 DAT): 2.50% | % control ([5]; 20 g ai/ha, 22 DAT): 5.00% | % control ([5]; 20 g ai/ha, 29 DAT): 3.75% | % control ([5]; 20 g ai/ha, 46 DAT): 7.50% | % control ([5]; 40 g ai/ha, 7 DAT): 0.00% | % control ([5]; 40 g ai/ha, 14 DAT): 0.00% | % control ([5]; 40 g ai/ha, 22 DAT): 2.50% | % control ([5]; 40 g ai/ha, 29 DAT): 8.75% | % control ([5]; 40 g ai/ha, 46 DAT): 30.00% | % control ([5]; 80 g ai/ha, 7 DAT): 0.00% | % control ([5]; 80 g ai/ha, 14 DAT): 0.00% | % control ([5]; 80 g ai/ha, 22 DAT): 5.00% | % control ([5]; 80 g ai/ha, 29 DAT): 17.50% | % control ([5]; 80 g ai/ha, 46 DAT): 51.25% | % control ([5]; 160 g ai/ha, 7 DAT): 0.00% | % control ([5]; 160 g ai/ha, 14 DAT): 6.25% | % control ([5]; 160 g ai/ha, 22 DAT): 8.75% | % control ([5]; 160 g ai/ha, 29 DAT): 20.00% | % control ([5]; 160 g ai/ha, 46 DAT): 70.00% | % phytotoxicity ([6]; 1 appl, 140 g ai/ha, 8 DAT): 36.67% | % phytotoxicity ([6]; 1 appl, 140 g ai/ha, 14 DAT): 28.33% | % phytotoxicity ([6]; 1 appl, 140 g ai/ha, 29 DAT): 0.00% | % phytotoxicity ([6]; 1 appl, 140 g ai/ha, 35 DAT): 0.00% | % phytotoxicity ([6]; 1 appl, 140 g ai/ha, 43 DAT): 0.00% | % phytotoxicity ([6]; 1 appl, 140 g ai/ha, 51 DAT): 0.00% | % phytotoxicity ([6]; 1 appl, 280 g ai/ha, 8 DAT): 40.00% | % phytotoxicity ([6]; 1 appl, 280 g ai/ha, 14 DAT): 43.33% | % phytotoxicity ([6]; 1 appl, 280 g ai/ha, 29 DAT): 0.00% | % phytotoxicity ([6]; 1 appl, 280 g ai/ha, 35 DAT): 0.00% | % phytotoxicity ([6]; 1 appl, 280 g ai/ha, 43 DAT): 0.00% | % phytotoxicity ([6]; 1 appl, 280 g ai/ha, 51 DAT): 0.00% | % phytotoxicity ([6]; 2 appl, 140 g ai/ha, 8 DAT): 43.33% | % phytotoxicity ([6]; 2 appl, 140 g ai/ha, 14 DAT): 40.00% | % phytotoxicity ([6]; 2 appl, 140 g ai/ha, 29 DAT): 0.00% | % phytotoxicity ([6]; 2 appl, 140 g ai/ha, 35 DAT): 28.33% | % phytotoxicity ([6]; 2 appl, 140 g ai/ha, 43 DAT): 8.33% | % phytotoxicity ([6]; 2 appl, 140 g ai/ha, 51 DAT): 1.67% | % phytotoxicity ([6]; 2 appl, 280 g ai/ha, 8 DAT): 41.67% | % phytotoxicity ([6]; 2 appl, 280 g ai/ha, 14 DAT): 51.67% | % phytotoxicity ([6]; 2 appl, 280 g ai/ha, 29 DAT): 0.00% | % phytotoxicity ([6]; 2 appl, 280 g ai/ha, 35 DAT): 30.00% | % phytotoxicity ([6]; 2 appl, 280 g ai/ha, 43 DAT): 11.67% | % phytotoxicity ([6]; 2 appl, 280 g ai/ha, 51 DAT): 5.00%
